Data: patent US6933289B2, “Inhibition of irritating side effects associated with use of a topical ophthalmic medication” (Allergan, Inc., priority 2003, dated 2005)

Tests used:
[1] = Phase-solubility analysis: association constant between bimatoprost and cyclodextrin or cyclodextrin derivative; type: physicochemical; details: 1:1 complex with bimatoprost, stirred one week at room temperature
Experimental: CD represents the associated complex of the two. […] CD], according to equation 2. [formula]
The association constant between the bimatoprost and four cyclodextrin or cyclodextrin derivatives was determined by running phase-solubility analysis. A series of small glass bottles was set up, each fitted with a screw cap and a magnetic stir bar with increasing concentrations of cyclodextrin or cyclodextrin derivative dissolved in a fixed volume (e.g., 10 mL) of aqueous vehicle (e.g., the formulation minus the drug and the cyclodextrin or cyclodextrin derivative). […] Bottles were then capped and the suspensions were stirred for a week at room temperature to ensure equilibrium. Undissolved drug was removed by centrifugation, followed by filtration through a 0.45 μm filter membrane to obtain a clear solution, free of drug in suspension. The concentration of the solubilized drug in each filtrate sample was determined and drug solubility (y-axis) was plotted against the concentration of the cyclodextrin or cyclodextrin derivative (x-axis). […] In principle, S0 is equivalent to the y intercept (b) of the fitted line, however, in most cases it can more accurately be determined by direct measurement of the solubility rather than indirectly from the fit of data.

[2] = 0.02% bimatoprost, cited from earlier work

Compound | Association Constant (molar association constant for bimatoprost) [1] | Hyperemia ([2]; no cyclodextrin) | Efficacy [2]
2-Hydroxypropyl β-cyclodextrin | ≈1913 M^−1 | – | –
CCNC(=O)CCC/C=C\C[C@@H]1[C@@H](/C=C/[C@@H](O)CCc2ccccc2)[C@H](O)C[C@@H]1O [bimatoprost] | – | little hyperemia | loses efficacy
OC[C@H]1O[C@@H]2O[C@H]3[C@H](O)[C@@H](O)[C@@H](O[C@H]4[C@H](O)[C@@H](O)[C@@H](O[C@H]5[C@H](O)[C@@H](O)[C@@H](O[C@H]6[C@H](O)[C@@H](O)[C@@H](O[C@H]7[C@H](O)[C@@H](O)[C@@H](O[C@H]8[C@H](O)[C@@H](O)[C@@H](O[C@H]9[C@H](O)[C@@H](O)[C@@H](O[C@H]1[C@H](O)[C@H]2O)O[C@@H]9CO)O[C@@H]8CO)O[C@@H]7CO)O[C@@H]6CO)O[C@@H]5CO)O[C@@H]4CO)O[C@@H]3CO [γ-cyclodextrin] | ≈439 M^−1 | – | –
Sulfobutyl ether β-cyclodextrin | ≈1464 M^−1 | – | –
